Measured values from US20070104644A1, “Inhibitor imaging agents” (priority 2003, published 2007).

Experiments:
MMP-1 = target: T1, MMP-1 (Homo sapiens, UniProt P03956); test: MMP-1 colorimetric assay kit (Biomol AK-404); assay type: biochemical
T1 sequence (P03956 100-469): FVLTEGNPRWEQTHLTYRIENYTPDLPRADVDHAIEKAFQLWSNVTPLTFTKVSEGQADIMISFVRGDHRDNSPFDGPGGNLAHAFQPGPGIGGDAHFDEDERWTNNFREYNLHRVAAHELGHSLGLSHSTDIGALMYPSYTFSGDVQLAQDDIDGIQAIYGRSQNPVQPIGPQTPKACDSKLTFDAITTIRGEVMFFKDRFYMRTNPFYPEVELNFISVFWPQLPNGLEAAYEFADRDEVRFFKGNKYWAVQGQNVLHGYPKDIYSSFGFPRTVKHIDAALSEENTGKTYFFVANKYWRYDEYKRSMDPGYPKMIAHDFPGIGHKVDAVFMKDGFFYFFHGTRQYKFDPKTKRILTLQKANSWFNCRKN
Procedure: (§1) Compounds were screened using the following commercially available Biomol assay kits: • MMP-1 colorimetric assay kit—Catalogue number AK-404, • MMP-2 colorimetric assay kit—Catalogue number AK-408, • MMP-8 calorimetric assay kit—Catalogue number AK-414, • MMP-9 calorimetric assay kit—Catalogue number AK-410, • MMP-12 colorimetric assay kit—Catalogue number AK-402, Which are available from Affiniti Research Products Ltd. (Palatine House, Matford Court, Exeter, EX2 8NL, UK).
(§2) Inhibitors were provided in powdered form, and stored at 4° C. For each inhibitor a 1 mM stock solution in DMSO was prepared, dispensed into 20 μl aliquots and these aliquots stored at −20° C. The stock solution was diluted to give 8 inhibitor concentrations (recommended: 50 μM, 5 μM, 500 nM, 50 nM, 5 nM, 500 pM, 50 pM and 5 pM). Dilutions were made in the kit assay buffer. A five-fold dilution of the inhibitor stocks is made on addition to the assay wells, therefore final concentration range was from 10 μM to 1 pM.
(§3) Details are provided with the commercial kit, but can be summarised as follows: • Prepare test compound dilutions as above, • Add assay buffer to plate, • Add test compounds to plate • Prepare standard kit inhibitor NNGH (see kit for dilution factor) • Add NNGH to control inhibitor wells • Prepare MMP enzyme (see kit for dilution factor) • Add MMP to plate • Incubate plate at 37° C. for ˜15 min • Prepare thiopeptolide substrate (see kit for dilution factor) • Add substrate to plate • Count every 2 min for 1 hr, 37° C., 414 nm on a Labsystems iEMS plate reader (for MMP-1 count every 30 seconds for 20 minutes).

MMP-2 = target: T2, MMP-2 (Homo sapiens, UniProt P08253); test: MMP-2 colorimetric assay kit (Biomol AK-408); assay type: biochemical
T2 sequence (P08253 110-660): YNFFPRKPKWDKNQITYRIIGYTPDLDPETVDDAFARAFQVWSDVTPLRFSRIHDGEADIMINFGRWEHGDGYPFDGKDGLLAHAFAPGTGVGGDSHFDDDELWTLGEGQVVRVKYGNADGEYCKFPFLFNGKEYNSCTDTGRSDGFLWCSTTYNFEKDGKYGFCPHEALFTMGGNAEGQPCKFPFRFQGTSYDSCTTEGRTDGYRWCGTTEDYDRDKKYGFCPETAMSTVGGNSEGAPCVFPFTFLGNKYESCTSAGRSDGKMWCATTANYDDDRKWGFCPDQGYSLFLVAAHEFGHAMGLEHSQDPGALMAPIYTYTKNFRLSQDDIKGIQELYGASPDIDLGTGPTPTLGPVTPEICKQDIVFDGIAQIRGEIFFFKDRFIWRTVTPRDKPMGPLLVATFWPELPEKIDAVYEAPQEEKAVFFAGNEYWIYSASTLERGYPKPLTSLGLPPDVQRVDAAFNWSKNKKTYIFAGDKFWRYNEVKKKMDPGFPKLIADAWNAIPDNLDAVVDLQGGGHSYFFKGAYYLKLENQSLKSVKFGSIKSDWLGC
Procedure: as §1, §2, §3

MMP-8 = MMP-8 (Homo sapiens, UniProt P22894); test: MMP-8 colorimetric assay kit (Biomol AK-414); assay type: biochemical
Sequence of MMP-8 (P22894 101-467): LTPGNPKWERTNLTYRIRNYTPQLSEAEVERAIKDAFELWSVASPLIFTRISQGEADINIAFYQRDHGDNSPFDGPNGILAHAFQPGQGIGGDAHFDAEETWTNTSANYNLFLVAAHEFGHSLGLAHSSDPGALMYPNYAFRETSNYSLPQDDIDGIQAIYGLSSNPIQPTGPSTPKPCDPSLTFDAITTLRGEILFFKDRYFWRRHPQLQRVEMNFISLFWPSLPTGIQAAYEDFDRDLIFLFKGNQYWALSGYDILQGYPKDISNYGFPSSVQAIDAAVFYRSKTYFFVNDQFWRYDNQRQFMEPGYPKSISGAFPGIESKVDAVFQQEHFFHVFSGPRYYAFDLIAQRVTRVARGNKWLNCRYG
Procedure: as §1, §2, §3

MMP-9 = MMP-9 (Homo sapiens, UniProt P14780); test: MMP-9 colorimetric assay kit (Biomol AK-410); assay type: biochemical
Sequence of MMP-9 (P14780 94-707): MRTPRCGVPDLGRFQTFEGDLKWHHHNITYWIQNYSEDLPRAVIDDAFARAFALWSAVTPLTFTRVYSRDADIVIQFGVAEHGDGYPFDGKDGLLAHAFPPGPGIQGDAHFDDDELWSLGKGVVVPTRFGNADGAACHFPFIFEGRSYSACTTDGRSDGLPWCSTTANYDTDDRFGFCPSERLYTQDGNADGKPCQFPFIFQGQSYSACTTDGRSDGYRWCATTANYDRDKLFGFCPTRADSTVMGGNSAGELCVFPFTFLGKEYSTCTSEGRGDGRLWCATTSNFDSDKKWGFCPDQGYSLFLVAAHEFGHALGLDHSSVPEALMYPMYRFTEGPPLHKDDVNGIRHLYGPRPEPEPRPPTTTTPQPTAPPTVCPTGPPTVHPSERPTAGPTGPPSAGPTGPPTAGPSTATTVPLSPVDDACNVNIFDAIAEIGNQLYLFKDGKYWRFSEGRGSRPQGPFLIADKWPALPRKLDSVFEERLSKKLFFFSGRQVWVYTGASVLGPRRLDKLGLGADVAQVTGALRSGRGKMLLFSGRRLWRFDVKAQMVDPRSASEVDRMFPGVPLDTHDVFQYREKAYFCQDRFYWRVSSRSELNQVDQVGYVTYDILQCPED
Procedure: as §1, §2, §3

MMP-12 = MMP-12 (Homo sapiens, UniProt P39900); test: MMP-12 colorimetric assay kit (Biomol AK-402); assay type: biochemical
Sequence of MMP-12 (P39900 106-470): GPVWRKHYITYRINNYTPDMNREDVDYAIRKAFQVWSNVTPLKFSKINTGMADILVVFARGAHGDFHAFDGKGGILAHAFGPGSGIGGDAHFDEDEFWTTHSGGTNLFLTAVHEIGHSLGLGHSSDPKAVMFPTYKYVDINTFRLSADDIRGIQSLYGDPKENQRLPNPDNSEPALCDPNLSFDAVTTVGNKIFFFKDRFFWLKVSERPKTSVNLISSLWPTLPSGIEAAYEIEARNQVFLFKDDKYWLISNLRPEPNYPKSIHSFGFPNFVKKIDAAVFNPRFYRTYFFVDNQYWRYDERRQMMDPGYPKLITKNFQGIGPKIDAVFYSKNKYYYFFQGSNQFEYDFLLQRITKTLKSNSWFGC
Procedure: as §1, §2, §3

[1] = In vitro rat plasma stability; assay type: in vitro ADME
Procedure: Plasma and in vivo stability studies were performed with Compound 24A to determine the stability and metabolism of the compound.

[2] = In vivo stability and metabolism in the rat
Excerpt: Only plasma and bile samples could be analysed due to insufficient radioactivity within the urine.

[3] = system: Lewis lung carcinoma (LLC) tumour; test: Biodistribution in LLC tumour model in vivo; design: species or system C57BL/6 mice
Procedure: 1×10^6 Lewis lung carcinoma (LLC) cells are injected subcutaneously into right inner thigh of C57BL/6 mice. Tumours were allowed to grow for 15 days prior to biodistribution being carried out.
Biodistribution studies were performed in the LLC tumour model.
Biodistribution was performed in the LLC tumour model of Example 23 with Compounds 46B and 48B.

[4] = system: ApoE −/− mice, carotid artery; test: Biodistribution in ApoE ligation model of atherosclerosis (ligated and sham); assay type: in vivo
Excerpt: ApoE −/− mice are transgenic knock-out mice, which lack the ApoE gene, and are therefore unable to regulate their plasma cholesterol levels. As a consequence ApoE mice develop atherosclerotic lesions, a process which is accelerated with feeding of high fat diet. Further acceleration of lesion development can be achieved by ligating the carotid artery, resulting in advanced lesion formation within 4 weeks of surgery and high fat diet feeding.
Two controls have been used for these experiments: (1) ApoE sham animals in which the mice undergo the same surgical intervention but the sture is only passed beneath the carotid and then removed and, (2) C57BL/6 ligtaed animals which undergo the same surgical ligation and high fat feeding as the ApoE ligated mice. Literature reports have stated that these animals do have some level of tissue remodelling, but with lower active MMP levels [Ivan et al, Circulation, 105, 2686-2691 (2002)].

[5] = system: MDA-MB-231 tumour (human breast carcinoma xenograft); test: Imaging in MDA-MB-231 tumour model in vivo
Procedure: Imaging was performed with Compound 24A in the MDA-MB-231 tumour model (a human breast carcinoma xenograft model). […] 1999 May;17(3):231-8; • Lee et al, Eur. J Cancer, 2001; 37:106-113. • Weber et al Int J Oncol.

[6] = ApoE Ligated, 5 min post injection
[7] = ApoE Ligated, 60 min post injection
[8] = ApoE Sham, 60 min post injection

Compound: NC(=O)[C@H](Cc1ccc(O)c(I)c1)NC(=O)CCOCCOCCOCCOCCOCCOCCOCCOCCOCCOCCOCCNC(=O)CCOCCOCCOCCOCCOCCOCCOCCOCCOCCOCCOCCNC(=O)CCN(C1(C(=O)NO)CCCC1)S(=O)(=O)c1ccc(Oc2ccc(F)cc2)cc1 [Compound 32]
- Ki (MMP-1): 330000 pM
- Ki (MMP-2): 620 pM
- Ki (MMP-8): 2170 pM
- Ki (MMP-9): 370 pM
- Ki (MMP-12): 890 pM

Compound: O=C(CCN(C1(C(=O)NO)CCCC1)S(=O)(=O)c1ccc(Oc2ccc(F)cc2)cc1)NCCc1ccc(O)c([123I])c1 [Compound 24A]
- In vitro rat plasma stability ([1]; 2 hours, 37° C.): good stability
- RCP of parent compound ([1]; start of incubation at 37° C.): 93%
- RCP of parent compound ([1]; through 2 hours incubation at 37° C.): 80%
- Metabolites detected in bile samples ([2]; in vivo): 4
- Metabolites detected in plasma samples ([2]; in vivo): One metabolite
- Free iodide in plasma samples ([2]; in vivo, through time): increasing amount of free iodide
- In vivo stability and metabolism ([2]; through time in vivo): slight instability and metabolism
- Background tissue uptake [3]: low background tissue uptake
- Blood clearance / retention [3]: cleared very rapidly from the blood
- Route of excretion [3]: primarily excreted through the hepatobiliary system (HBS)
- Tumour uptake and retention [3]: Some retention was seen within tumour tissue
- % ID Urinary (urinary excretion), mean ([3]; 5 min post injection): 7.17 % ID
- % ID/g Tumour, mean ([3]; 5 min post injection): 0.6 % ID/g
- Tumour/Blood, mean ([3]; 5 min post injection): 0.32
- Tumour/Heart, mean ([3]; 5 min post injection): 0.27
- Tumour/Lung, mean ([3]; 5 min post injection): 0.22
- Tumour/Muscle, mean ([3]; 5 min post injection): 1.19
- % ID Urinary (urinary excretion), mean ([3]; 30 min post injection): 6.89 % ID
- % ID/g Tumour, mean ([3]; 30 min post injection): 0.56 % ID/g
- Tumour/Blood, mean ([3]; 30 min post injection): 0.59
- Tumour/Heart, mean ([3]; 30 min post injection): 0.57
- Tumour/Lung, mean ([3]; 30 min post injection): 0.39
- Tumour/Muscle, mean ([3]; 30 min post injection): 1.6
- % ID Urinary (urinary excretion), mean ([3]; 60 min post injection): 5.5 % ID
- % ID/g Tumour, mean ([3]; 60 min post injection): 0.48 % ID/g
- Tumour/Blood, mean ([3]; 60 min post injection): 0.46
- Tumour/Heart, mean ([3]; 60 min post injection): 0.68
- Tumour/Lung, mean ([3]; 60 min post injection): 0.37
- Tumour/Muscle, mean ([3]; 60 min post injection): 1.41
- % ID Urinary (urinary excretion), mean ([3]; 120 min post injection): 7.22 % ID
- % ID/g Tumour, mean ([3]; 120 min post injection): 0.6 % ID/g
- Tumour/Blood, mean ([3]; 120 min post injection): 0.66
- Tumour/Heart, mean ([3]; 120 min post injection): 1.23
- Tumour/Lung, mean ([3]; 120 min post injection): 0.85
- Tumour/Muscle, mean ([3]; 120 min post injection): 1.87
- % ID/G Carotid, mean [4, 6]: 2.67 % ID/G
- Carotid/Blood, mean [4, 6]: 0.94
- Carotid/Heart, mean [4, 6]: 0.48
- Carotid/Lung, mean [4, 6]: 0.62
- % ID/G Carotid, mean [4, 7]: 2.00 % ID/G
- Carotid/Blood, mean [4, 7]: 1.97
- Carotid/Heart, mean [4, 7]: 1.03
- Carotid/Lung, mean [4, 7]: 1.71
- % ID/G Carotid, mean [4, 8]: 0.25 % ID/G
- Carotid/Blood, mean [4, 8]: 0.19
- Carotid/Heart, mean [4, 8]: 0.21
- Carotid/Lung, mean [4, 8]: 0.17
- Tumour hotspots on imaging [5]: seen from 5 to 120 minutes post injection

Compound: NC(=O)[C@H](CCCCNC(=O)CON=Cc1ccc(F)cc1)NC(=O)CCN(C1(C(=O)NO)CCCC1)S(=O)(=O)c1ccc(Oc2ccc(F)cc2)cc1 [Compound 46]
- Ki (MMP-1): 172000 pM
- Ki (MMP-2): 1960 pM
- Ki (MMP-8): 520 pM
- Ki (MMP-9): 440 pM
- Ki (MMP-12): 170 pM
